Patent publication US5300629A, “Bactericidal and/or bacteriostatic peptides isolated from hemolymph of honeybees” (Plant Genetic Systems, N.V., priority 1987, dated 1994)
Converted amounts (≈) assume the structure as drawn. Where a SMILES comes first, the peptide text is derived from it.

Columns and labels:
Format in all cases: cell-based
[1] = test system: Agrobactierium tumefaciens DSM 3129; assay: Minimal inhibitory concentration in liquid culture; conditions: 200 μl rich medium, 10^4 log-phase bacteria
[2] = test system: Corynebacterium insidiosum NCPPB 1109; assay: Minimal inhibitory concentration in liquid culture; conditions: 200 μl rich medium, 10^4 log-phase bacteria
Method: (§1) In addition the exact concentration was determined precisely by amino-acid analysis and an equal sample of natural Bee 6b was prepared, allowing to compare the bactericidal activity of both natural and synthetic apidaecins by means of growth inhibition assays in liquid cultures (see mat & Meth.). The minimal inhibitory concentrations (μg/ml) were determined in liquid culture : 200 μl of a rich medium (trypticase soy broth or nutrient broth) was inoculated with 10^4 log-phase bacteria. Peptide concentrations ranged between 0 and 200 μg/ml. The values express μg/ml; when no inhibition was noticed the maximal values are given (+200 μg/ml or +50 μg/ml). All peptides were chemically synthesized, except for bee 6b which is purified from bee lymph.

[3] = test system: Corynebacterium michiganense pv. michiganense NCPPB 1573; assay: Minimal inhibitory concentration in liquid culture; conditions: 200 μl rich medium, 10^4 log-phase bacteria, + = no inhibition at maximal value
Method: as §1

[4] = test system: Shigella flexneri CP 87; assay: Minimal inhibitory concentration in liquid culture; conditions: 200 μl rich medium, 10^4 log-phase bacteria
Method: as §1

[5] = test system: Xanthomonas campestris pv. vesicatoria LMG 905; assay: Minimal inhibitory concentration in liquid culture; conditions: 200 μl rich medium, 10^4 log-phase bacteria, + = no inhibition at maximal value
Method: as §1

[6] = test system: Erwinia carotovora var atroseptica LMG 2385; assay: Minimal inhibitory concentration in liquid culture; conditions: 200 μl rich medium, 10^4 log-phase bacteria
[7] = test system: Erwinia carotovora var carotovora NCPPB 312; assay: Minimal inhibitory concentration in liquid culture; conditions: 200 μl rich medium, 10^4 log-phase bacteria
[8] = test system: Erwinia salicis NCPPB 2530; assay: Minimal inhibitory concentration in liquid culture; conditions: 200 μl rich medium, 10^4 log-phase bacteria
[9] = test system: Pseudomonas syringae pv. tomato NCPPB 1106; assay: Minimal inhibitory concentration in liquid culture; conditions: 200 μl rich medium, 10^4 log-phase bacteria
[10] = test system: Pseudomonas syringae pv. maculicola NCPPB 1776; assay: Minimal inhibitory concentration in liquid culture; conditions: 200 μl rich medium, 10^4 log-phase bacteria
[11] = test system: Pseudomonas syringae pv. tabaci NCPPB 1237; assay: Minimal inhibitory concentration in liquid culture; conditions: 200 μl rich medium, 10^4 log-phase bacteria
[12] = test system: Pseudomonas solanacearum ATCC 11696; conditions: 200 μl rich medium, 10^4 log-phase bacteria
[13] = test system: Rhizobium meliloti ZB 314; assay: Minimal inhibitory concentration in liquid culture; conditions: 200 μl rich medium, 10^4 log-phase bacteria
[14] = test system: Xanthomonas campestris pv. campestris A 902; assay: Minimal inhibitory concentration in liquid culture; conditions: 200 μl rich medium, 10^4 log-phase bacteria, + = no inhibition at maximal value
[15] = test system: Bacillus alvei LMG 6922; assay: Minimal inhibitory concentration in liquid culture; conditions: 200 μl rich medium, 10^4 log-phase bacteria, + = no inhibition at maximal value
[16] = test system: Citrobacter freundii ATCC 8090; assay: Minimal inhibitory concentration in liquid culture; conditions: 200 μl rich medium, 10^4 log-phase bacteria
[17] = test system: Escherichia coli NCTC 9001; assay: Minimal inhibitory concentration in liquid culture; conditions: 200 μl rich medium, 10^4 log-phase bacteria
[18] = test system: Salmonella Newport CD 94; assay: Minimal inhibitory concentration in liquid culture; conditions: 200 μl rich medium, 10^4 log-phase bacteria
[19] = test system: Salmonella typhimurium ATCC 23565; assay: Minimal inhibitory concentration in liquid culture; conditions: 200 μl rich medium, 10^4 log-phase bacteria
[20] = test system: Bacillus megaterium QB 1551; assay: Minimal inhibitory concentration in liquid culture; conditions: 200 μl rich medium, 10^4 log-phase bacteria, + = no inhibition at maximal value
[21] = test system: Bacillus subtilis NRRL-B-237; assay: Minimal inhibitory concentration in liquid culture; conditions: 200 μl rich medium, 10^4 log-phase bacteria, + = no inhibition at maximal value
[22] = test system: E. coli NCTC 9001; assay: Bactericidal activity, method not stated; conditions: lyophilized apidaecins resuspended in PBS

CC[C@H](C)[C@H](NC(=O)[C@@H]1CCCN1C(=O)[C@H](CCCNC(=N)N)NC(=O)[C@H](CC(N)=O)NC(=O)[C@H](CC(N)=O)NC(=O)CN)C(=O)N[C@@H](Cc1ccc(O)cc1)C(=O)N[C@H](C(=O)N1CCC[C@H]1C(=O)N[C@@H](CCC(N)=O)C(=O)N1CCC[C@H]1C(=O)N[C@@H](CCCNC(=N)N)C(=O)N1CCC[C@H]1C(=O)N1CCC[C@H]1C(=O)N[C@@H](Cc1c[nH]cn1)C(=O)N1CCC[C@H]1C(=O)N[C@@H](CCCNC(=N)N)C(=O)N[C@@H](CC(C)C)C(=O)O)[C@@H](C)CC [Apid II] (H-GNNRPIYIPQPRPPHPRL-OH)
minimal inhibitory concentration [1]: 0.2 µg/mL (≈ 0.0942 µM)
minimal inhibitory concentration [2]: 100 µg/mL (≈ 47.1 µM)
minimal inhibitory concentration [3]: > 50 µg/mL
minimal inhibitory concentration [4]: 0.1 µg/mL (≈ 0.0471 µM)
minimal inhibitory concentration [5]: > 50 µg/mL
minimal inhibitory concentration [6]: 0.5 µg/mL (≈ 0.236 µM)
minimal inhibitory concentration [7]: 2.5 µg/mL (≈ 1.18 µM)
minimal inhibitory concentration [8]: 0.02 µg/mL (≈ 0.00942 µM)
minimal inhibitory concentration [9]: 0.1 µg/mL (≈ 0.0471 µM)
minimal inhibitory concentration [10]: 0.5 µg/mL (≈ 0.236 µM)
minimal inhibitory concentration [11]: 1 µg/mL (≈ 0.471 µM)
minimal inhibitory concentration [12]: 10 µg/mL (≈ 4.71 µM)
minimal inhibitory concentration [13]: 0.02 µg/mL (≈ 0.00942 µM)
minimal inhibitory concentration [14]: 50 µg/mL
minimal inhibitory concentration [15]: > 200 µg/mL
minimal inhibitory concentration [16]: 0.2 µg/mL (≈ 0.0942 µM)
minimal inhibitory concentration [17]: 0.2 µg/mL (≈ 0.0942 µM)
minimal inhibitory concentration [18]: 0.2 µg/mL (≈ 0.0942 µM)
minimal inhibitory concentration [19]: 0.1 µg/mL (≈ 0.0471 µM)
minimal inhibitory concentration [20]: 100 µg/mL
minimal inhibitory concentration [21]: > 200 µg/mL
bactericidal activity [22]: possessed a bactericidal activity
